Experimental data as given in paper PMC5770468, “Cardiac glycoside/aglycones inhibit HIV-1 gene expression by a mechanism requiring MEK1/2-ERK1/2 signaling” (Scientific Reports, 2018).

Tested on: HeLa rtTA-HIV(Gag-GFP) cells
Type: cell-based, human
Details: 220 nM
Method: Using the same methods and conditions described for HeLa rtTA-HIV-ΔMls cells, HeLa rtTA-HIV(Gag-GFP) cells were seeded in 48-/12-well plates and pretreated with/without pathway inhibitor prior to treatment with drug/compounds and Dox. Equal concentrations of DMSO were present in each experiment. HIV-1 gene expression was determined by detecting Gag-GFP fluorescence in cells by plate scans using a Typhoon Imager 9400 (Amersham Biosciences) or Typhoon FLA 9400 (GE) on ImageQuant, cell lysates by SDS-PAGE captured on ChemiDoc MP, or cell lysates by p24^CA ELISA. Before quantification, cells were washed with warm PBS and either scanned live (and harvested for protein analyses) or fixed in 3.7% paraformaldehyde/formaldehyde-PBS for subsequent analyses. Data from cell scans and SDS-PAGEs were quantitated using ImageJ and Image Lab software, respectively. To determine which pathway signal was used by a CS to inhibit HIV-1 gene expression, cells treated with CS were pre-treated with a specific pathway inhibitor and monitored for recovery of Gag-GFP expression. […] In parallel, the cell viability of each pathway inhibitor and CS treatment combination were monitored by cell density staining of fixed cells with 2% methylene blue (BioBasic, #MB0342) in 50% ethanol and read at OD664 on a TECAN Infinite® 200 PRO or Biotek Cytation5. […]

For `COc1ccc(C[C@H]2NC[C@H](O)[C@H]2OC(C)=O)cc1` [anisomycin, Anisomycin], the “effect on cell density” value was “little to no effect”.
